PubChem BioAssay AID1919003 (Molecular Pharmacology Branch, DTP, NCI, 2023)

Test system: 786-0 complex spheroids with HUVEC/MSC, growth % test/control
Test: Anticancer human tumor 786-0 cell line growth inhibition [AhR];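 also: compound exposure lasted seven days before the read-out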
Conditions: for IC50: curve of first compound; for viability, T/C: stronger effect = lower value
Source text: Multicellular complex tumor spheroid response to aryl hydrocarbon receptor antagonists in combination with a variety of drugs and investigational agents in selected tumor cell lines
The current study was undertaken to assess response to aryl hydrocarbon receptor antagonists in combination with standard-of-care drugs and investigational agents in solid tumor complex spheroid models. Complex spheroids include a stromal component modeled by human endothelial cells (HUVEC) and fibroblasts modeled by human mesenchymal stem cells (MSCs). The concentration ranges selected for each drug and investigational agent were based upon clinically achievable concentrations if the clinical Cmax of the agent was known.
Compounds. The drugs and investigational agents: BAY 2416964 (NSC825713), GNF351 (NSC835774), CH-223191 (NSC835775), CPI-455 (NSC825282), aza-TdCyd (NSC777586), decitabine (NSC127716), belinostat (NSC758774), entinostat (NSC756642), pevonedistat (NSC761192), tazemetostat (NSC777109), talazoparib (NSC765396), olaparib (NSC753686), selinexor (NSC780203), nedisertib (M3814, NSC802822), bortezomib (NSC756655), venetoclax (NSC766270), doxorubicin (NSC123127), elimusertib (BAY189344, NSC800525), ceralasertib (AZD6738, NSC777638), TAK-243 (NSC785004), alisertib (NSC759677), etoposide (NSC141540), topotecan (NSC609699), eribulin (NSC707389), gemcitabine (NSC613327), carboplatin (NSC241240), cisplatin (NSC119875), and SN-38 (NSC673596) were obtained from the National Cancer Institute (NCI) Developmental Therapeutics Program Chemical Repository (32). The FDA-approved anticancer drug set is available from the Developmental Therapeutics Program at https://dtp.cancer.gov/organization/dscb/obtaining/available plates.htm. […] The stock solutions were prepared in dimethyl sulfoxide (DMSO, Sigma-Aldrich, St. Louis, MO, cat. D2650), except for the platinum compounds which were prepared in saline (Quality Biological, Gaithersburg, MD, cat. 114-055-101), at 800-fold the tested concentration and stored at -70 degrees C prior to their use. All drugs and investigational agents were tested over a range starting from a high concentration at or near the clinical Cmax and decreasing in half-log increments. If the clinical Cmax for an agent had not been determined, the highest concentration tested was 10 microM (Table 1).
Cell Culture. All cells were maintained in an incubator at 37 degrees C and 5% CO2 with 95% humidity. The PDC lines were cultured according to standard operating procedures established by the NCI PDMR (https://pdmr.cancer.gov). Briefly, all PDCs were thawed and cultured in Matrigel-coated flasks prepared with a working solution of 1X Ham's F-12 nutrient mix, without supplementation (Invitrogen, Waltham, MA, cat. 11765054), 100 U/mL penicillin-streptomycin (Invitrogen, cat. 15140122), and 2.5% Matrigel (Corning Inc., Corning, NY, cat. 354248) for the first three passages. All PDCs were cultured in complete DMEM/F-12 media containing advanced DMEM/F-12 (Invitrogen, cat. 12634028), 4.9% defined fetal bovine serum, heat inactivated (HyClone Laboratories Inc., Logan, UT, cat. SH30070.03HI), 389 ng/mL hydrocortisone (Sigma-Aldrich, cat. H4001), 9.7 ng/mL human EGF recombinant protein (Invitrogen, cat. PHG0313), 23.4 microg/mL adenine (Sigma-Aldrich, cat. A2786), 97.3 U/mL penicillin-streptomycin (Invitrogen, cat. 15140122), 1.9 mM L-glutamine (Invitrogen, cat. 25030081), and 9.7 microM Y-27632 dihydrochloride (Tocris Bioscience, Bristol, United Kingdom, cat. 1254). The PDCs were cultured in complete DMEM/F12 media without 10 microM Y-27632 dihydrochloride for at least two passages prior to the screen. The established cell lines NCI-H1341 and […] were cultured in DMEM/F-12, HEPES (Invitrogen, cat. 11330032), 5% defined fetal bovine serum (HyClone Laboratories Inc., cat. SH30070.03), ITS premix universal culture supplement [insulin (5 microg/mL), transferrin (5 microg/mL), and selenious acid (5 ng/mL)] […]

[1] = second compound 0.1 µM, first compound 0.00316 µM
[2] = second compound 0.1 µM, first compound 0.01 µM
[3] = second compound 0.1 µM, first compound 0.0316 µM
[4] = second compound 0.1 µM, first compound 0.1 µM
[5] = second compound 0.316 µM, first compound 0.00316 µM
[6] = second compound 0.316 µM, first compound 0.01 µM
[7] = second compound 0.316 µM, first compound 0.0316 µM
[8] = second compound 0.316 µM, first compound 0.1 µM
[9] = second compound 1 µM, first compound 0.00316 µM
[10] = second compound 1 µM, first compound 0.01 µM
[11] = second compound 1 µM, first compound 0.0316 µM
[12] = second compound 1 µM, first compound 0.1 µM
[13] = second compound 3.16 µM, first compound 0.00316 µM
[14] = second compound 3.16 µM, first compound 0.01 µM
[15] = second compound 3.16 µM, first compound 0.0316 µM
[16] = second compound 3.16 µM, first compound 0.1 µM
[17] = second compound 10 µM, first compound 0.00316 µM
[18] = second compound 10 µM, first compound 0.01 µM
[19] = second compound 10 µM, first compound 0.0316 µM
[20] = second compound 10 µM, first compound 0.1 µM
[21] = second compound 0.1 µM, first compound 0.316 µM
[22] = second compound 0.1 µM, first compound 1 µM
[23] = second compound 0.1 µM, first compound 3.16 µM
[24] = second compound 0.1 µM, first compound 10 µM
[25] = second compound 0.316 µM, first compound 0.316 µM
[26] = second compound 0.316 µM, first compound 1 µM
[27] = second compound 0.316 µM, first compound 3.16 µM
[28] = second compound 0.316 µM, first compound 10 µM
[29] = second compound 1 µM, first compound 0.316 µM
[30] = second compound 1 µM, first compound 1 µM
[31] = second compound 1 µM, first compound 3.16 µM
[32] = second compound 1 µM, first compound 10 µM
[33] = second compound 3.16 µM, first compound 0.316 µM
[34] = second compound 3.16 µM, first compound 1 µM
[35] = second compound 3.16 µM, first compound 3.16 µM
[36] = second compound 3.16 µM, first compound 10 µM
[37] = second compound 10 µM, first compound 0.316 µM
[38] = second compound 10 µM, first compound 1 µM
[39] = second compound 10 µM, first compound 3.16 µM
[40] = second compound 10 µM, first compound 10 µM

Row | SMILES | IC50 (second compound 0.1 µM) [nM] | IC50 (second compound 0.316 µM) [nM] | IC50 (second compound 1 µM) [nM] | IC50 (second compound 3.16 µM) [nM] | IC50 (second compound 10 µM) [nM] | viability, T/C [3] [%] | viability, T/C [4] [%] | viability, T/C [7] [%] | viability, T/C [8] [%] | viability, T/C [11] [%] | viability, T/C [12] [%] | viability, T/C [15] [%] | viability, T/C [16] [%] | viability, T/C [19] [%] | viability, T/C [20] [%] | viability, T/C [21] [%] | viability, T/C [22] [%] | viability, T/C [25] [%] | viability, T/C [26] [%] | viability, T/C [29] [%] | further results
1 | CC[C@@]1(O)C(=O)OCc2c1cc1n(c2=O)Cc2cc3c(CN(C)C)c(O)ccc3nc2-1 + CC(CO)NC(=O)c1cc(-c2ccc(Cl)cc2)nn(-c2cnn(C)c2)c1=O | 59 | 57.6 | 60.8 | 53.6 | 51.8 | 90.9 | 15.2 | 89.9 | 13.3 | 95.4 | 15.2 | 80.9 | 13.4 | 76.9 | 14.1 | – | – | – | – | – | viability, T/C (second compound 0.1 µM, first compound 0.000316 µM): 112%; viability, T/C (second compound 0.1 µM, first compound 0.001 µM): 119%; viability, T/C [1]: 111%; viability, T/C [2]: 115%; viability, T/C (second compound 0.316 µM, first compound 0.000316 µM): 106%; viability, T/C (second compound 0.316 µM, first compound 0.001 µM): 114%; viability, T/C [5]: 112%; viability, T/C [6]: 109%; viability, T/C (second compound 1 µM, first compound 0.000316 µM): 113%; viability, T/C (second compound 1 µM, first compound 0.001 µM): 107%; viability, T/C [9]: 108%; viability, T/C [10]: 104%; viability, T/C (second compound 3.16 µM, first compound 0.000316 µM): 113%; viability, T/C (second compound 3.16 µM, first compound 0.001 µM): 116%; viability, T/C [13]: 109%; viability, T/C [14]: 109%; viability, T/C (second compound 10 µM, first compound 0.000316 µM): 118%; viability, T/C (second compound 10 µM, first compound 0.001 µM): 116%; viability, T/C [17]: 118%; viability, T/C [18]: 113%
2 | COc1cc(C2c3cc4c(cc3C(OC3OC5COC(C)OC5C(O)C3O)C3COC(=O)C23)OCO4)cc(OC)c1O (stereo not given) + CC(CO)NC(=O)c1cc(-c2ccc(Cl)cc2)nn(-c2cnn(C)c2)c1=O | 597 | 517 | 422 | 232 | 255 | 89.7 | 82 | 66 | 72.5 | 79.1 | 94.9 | 83.7 | 65.6 | 88.3 | 78.8 | 74.2 | 29.7 | 69.1 | 24.9 | 58.7 | viability, T/C [23]: 18.8%; viability, T/C [24]: 5.08%; viability, T/C [27]: 13.1%; viability, T/C [28]: 6.05%; viability, T/C [30]: 20.2%; viability, T/C [31]: 16%; viability, T/C [32]: 4.53%; viability, T/C [33]: 44.8%; viability, T/C [34]: 24.4%; viability, T/C [35]: 17.5%; viability, T/C [36]: 5.67%; viability, T/C [37]: 40.2%; viability, T/C [38]: 22.2%; viability, T/C [39]: 13.9%; viability, T/C [40]: 3.72%
3 | COc1cccc2c1C(=O)c1c(O)c3c(c(O)c1C2=O)CC(O)(C(=O)CO)CC3OC1CC(N)C(O)C(C)O1 (stereo not given) + CC(CO)NC(=O)c1cc(-c2ccc(Cl)cc2)nn(-c2cnn(C)c2)c1=O | 43 | < 31.6 | 45.5 | < 31.6 | < 31.6 | 54.4 | 37.9 | 46.7 | 40 | 54.3 | 40.6 | 47.4 | 42.3 | 44.9 | 37.5 | 12.5 | 2.51 | 14.3 | 3.11 | 11.6 | viability, T/C [23]: 0.63%; viability, T/C [24]: 0.56%; viability, T/C [27]: 0.25%; viability, T/C [28]: 0.6%; viability, T/C [30]: 3.23%; viability, T/C [31]: 0.45%; viability, T/C [32]: 0.49%; viability, T/C [33]: 10.9%; viability, T/C [34]: 3.69%; viability, T/C [35]: 0.34%; viability, T/C [36]: 0.41%; viability, T/C [37]: 11.2%; viability, T/C [38]: 1.48%; viability, T/C [39]: 0.72%; viability, T/C [40]: 0.86%
4 | Nc1ncn(C2CC(O)C(CO)O2)c(=O)n1 (stereo not given) + CC(CO)NC(=O)c1cc(-c2ccc(Cl)cc2)nn(-c2cnn(C)c2)c1=O | > 1000 | > 1000 | > 1000 | > 1000 | > 1000 | 72.4 | 75.3 | 75.3 | 62.1 | 88.6 | 72.1 | 93.8 | 91.2 | 122 | 117 | 75.3 | 62 | 57.9 | 55 | 65.3 | viability, T/C [1]: 96.2%; viability, T/C [2]: 79.7%; viability, T/C [5]: 69%; viability, T/C [6]: 66%; viability, T/C [9]: 82.4%; viability, T/C [10]: 109%; viability, T/C [30]: 61%; viability, T/C [13]: 108%; viability, T/C [14]: 94.1%; viability, T/C [33]: 77.7%; viability, T/C [34]: 64.3%; viability, T/C [17]: 116%; viability, T/C [18]: 121%; viability, T/C [37]: 109%; viability, T/C [38]: 73.1%
